Test results as given in patent US12486267B2, “Imidazo[1,2-A]pyridine and [1,2,4]triazolo[1,5-A]pyridine derivatives as TLR9 inhibitors for the treatment of fibrosis” (BRISTOL-MYERS SQUIBB COMPANY, priority 2020, dated 2025).

Biological target: T1, human TLR9 (Homo sapiens, UniProt Q9NR96)
T1 sequence (Q9NR96 26-1032): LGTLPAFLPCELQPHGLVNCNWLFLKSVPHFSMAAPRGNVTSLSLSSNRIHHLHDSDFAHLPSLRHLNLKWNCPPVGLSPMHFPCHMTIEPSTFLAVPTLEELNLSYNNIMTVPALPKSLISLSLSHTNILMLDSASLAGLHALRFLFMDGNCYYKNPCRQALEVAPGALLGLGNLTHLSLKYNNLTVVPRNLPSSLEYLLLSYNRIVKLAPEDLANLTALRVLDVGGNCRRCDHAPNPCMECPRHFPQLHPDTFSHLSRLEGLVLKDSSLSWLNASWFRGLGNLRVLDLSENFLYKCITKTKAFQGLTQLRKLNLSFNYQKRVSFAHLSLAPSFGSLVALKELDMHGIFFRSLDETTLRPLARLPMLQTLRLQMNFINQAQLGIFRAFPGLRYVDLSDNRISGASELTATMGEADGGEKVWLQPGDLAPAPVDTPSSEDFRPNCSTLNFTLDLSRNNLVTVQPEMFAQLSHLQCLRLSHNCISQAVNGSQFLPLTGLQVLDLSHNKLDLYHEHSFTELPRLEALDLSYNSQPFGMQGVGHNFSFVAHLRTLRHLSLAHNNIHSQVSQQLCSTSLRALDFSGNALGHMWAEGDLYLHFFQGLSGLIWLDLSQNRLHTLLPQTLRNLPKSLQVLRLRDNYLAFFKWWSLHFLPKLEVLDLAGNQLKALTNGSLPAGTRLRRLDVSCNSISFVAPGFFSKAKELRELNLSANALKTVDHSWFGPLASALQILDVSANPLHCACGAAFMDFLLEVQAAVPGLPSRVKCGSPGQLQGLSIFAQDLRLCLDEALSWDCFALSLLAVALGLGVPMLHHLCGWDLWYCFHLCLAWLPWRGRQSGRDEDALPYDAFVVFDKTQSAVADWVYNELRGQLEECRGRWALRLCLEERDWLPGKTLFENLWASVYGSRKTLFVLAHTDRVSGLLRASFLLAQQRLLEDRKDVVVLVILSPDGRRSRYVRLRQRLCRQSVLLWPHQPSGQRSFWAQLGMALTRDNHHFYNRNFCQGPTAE
Assay: TLR9 inhibition reporter assay (HEK-Blue cells, SEAP reporter)
Assay type: cell-based
Conditions: HEK-Blue cells overexpressing human TLR9; stimulated with ODN2006 5 nM; 22 hour incubation; SEAP readout
Protocol: TLR7/8/9 Inhibition Reporter Assays
HEK-Blue™-cells (Invivogen) overexpressing human TLR7, TLR8 or TLR9 receptors were used for screening inhibitors of these receptors using an inducible SEAP (secreted embryonic alkaline phosphatase) reporter gene under the control of the […] minimal promoter fused to five NF-κB and AP-1-binding sites. Briefly, cells are seeded into Greiner 384 well plates (15000 cells per well for TLR7, 20,000 for TLR8 and 25,000 for TLR9) and then treated with test compounds in DMSO to yield a final dose response concentration range of 0.05 nM-50 μM. After a 30 minute compound pre-treatment at room temperature, the cells are then stimulated with a TLR7 ligand (gardiquimod at a final concentration of 7.5 μM), TLR8 ligand (R848 at a final concentration of 15.9 μM) or TLR9 ligand (ODN2006 at a final concentration of 5 nM) to activate NF-κB and AP-1 which induce the production of SEAP. After a 22 hour incubation at 37° C., 5% CO2, SEAP levels are determined with the addition of HEK-Blue™ Detection reagent (Invivogen), a cell culture medium that allows for detection of SEAP, according to manufacturer's specifications. The percent inhibition is determined as the % reduction in the HEK-Blue signal present in wells treated with agonist plus DMSO alone compared to wells treated with a known inhibitor.

| Compound | IC50 [µM] |
| --- | --- |
| Cc1cc(C2CCN(C3CC4CCC(C3)N4CC3CC3)CC2)cn2cc(-c3ccc(S(C)(=O)=O)cc3)nc12 (single isomer, unassigned) [Example 88, 6-(1-(8-(cyclopropylmethyl)-8-azabicyclo[3.2.1]octan-3-yl)piperidin-4-yl)-8-methyl-2-(4-(methylsulfonyl)phenyl) imidazo[1,2-a]pyridine] | 0.12 |
| COCCN1CCN(c2ccc(-c3cc(C)c4nc(-c5ccc(S(C)(=O)=O)cc5)cn4c3)cc2)CC1 [Example 105, 6-(4-(4-(2-methoxyethyl)piperazin-1-yl)phenyl)-8-methyl-2-(4-(methylsulfonyl)phenyl) imidazo[1,2-a]pyridine] | 1 |
| Cc1cc(C2CCN(C3CC4CCC(C3)N4CC(C)C)CC2)cn2cc(-c3ccc(S(C)(=O)=O)cc3)nc12 (single isomer, unassigned) [Example 86, 6-(1-(8-isobutyl-8-azabicyclo[3.2.1]octan-3-yl)piperidin-4-yl)-8-methyl-2-(4-(methylsulfonyl)phenyl)imidazo[1,2-a]pyridine] | 0.102 |
| CC1CC(c2ccc(N3CC4CCC(C3)N4C(C)C)cc2)Cn2nc(-c3ccc(S(C)(=O)=O)cc3)nc21 (stereo not drawn) [Example 154, 6-(4-(8-isopropyl-3,8-diazabicyclo[3.2.1]octan-3-yl)phenyl)-8-methyl-2-(4-(methylsulfonyl)phenyl)-5,6,7,8-tetrahydro-[1,2,4]triazolo[1,5-a]pyridine] | 7.74 |
| COc1ccc(-c2nc3ccc(-c4ccc(N5CC6CCC(C5)N6C(C)C)cc4)cn3n2)cc1OC [Example 166] | 0.628 |
| Cc1cc(-c2ccc(N3CC4CCC(C3)N4C(C)C)cc2)cn2nc(-c3ccc(S(C)(=O)=O)cc3)nc12 [Example 153, 6-(4-(8-isopropyl-3,8-diazabicyclo[3.2.1]octan-3-yl)phenyl)-8-methyl-2-(4-(methylsulfonyl)phenyl)-[1,2,4]triazolo[1,5-a]pyridine] | 0.659 |
| COc1ccc(-c2cn3cc(C4CC5CCC(C4)N5C4CCN(CC(C)C)CC4)cc(C)c3n2)cc1OC (single isomer, unassigned) [Example 29, 2-(3,4-dimethoxyphenyl)-6-(8-(1-isobutylpiperidin-4-yl)-8-azabicyclo[3.2.1]octan-3-yl)-8-methylimidazo[1,2-a]pyridine] | 0.01 |
| CS(=O)(=O)c1ccc(-c2cn3cc(C4CCN(C5CCN(C6CC6)CC5)CC4)c(F)cc3n2)cc1 [Example 124, 6-(1′-cyclopropyl-[1,4′-bipiperidin]-4-yl)-7-fluoro-2-(4-(methylsulfonyl)phenyl) imidazo[1,2-a]pyridine] | 0.158 |
| COc1ccc(-c2nc3c(C)cc(C4CCN(C5CCN(C6CC6)CC5)CC4)cn3n2)cc1OC [Example 157, 6-(1′-cyclopropyl-[1,4′-bipiperidin]-4-yl)-2-(3,4-dimethoxyphenyl)-8-methyl-[1,2,4]triazolo[1,5-a]pyridine] | 0.232 |
| COc1ccc(-c2cn3cc(C4CC5CCC(C4)N5C4CCN(CC(C)C)CC4)cc(C)c3n2)cc1OC (single isomer, unassigned) [Example 28, 2-(3,4-dimethoxyphenyl)-6-(8-(1-isobutylpiperidin-4-yl)-8-azabicyclo[3.2.1]octan-3-yl)-8-methylimidazo[1,2-a]pyridine] | 0.0079 |
| Cc1cc(C2CCN(C3CCN(C4CC4)CC3)CC2)cn2nc(-c3ccc(S(C)(=O)=O)cc3)nc12 [Example 161, 6-(1′-cyclopropyl-[1,4′-bipiperidin]-4-yl)-8-methyl-2-(4-(methylsulfonyl)phenyl)-[1,2,4]triazolo[1,5-a]pyridine] | 0.27 |
| COc1ccc(-c2nc3c(C)cc(C4CC5CCC(C4)N5C4CCN(C(C)C)CC4)cn3n2)cc1OC (stereo not drawn) [Example 156, 2-(3,4-dimethoxyphenyl)-6-(8-(1-isopropylpiperidin-4-yl)-8-azabicyclo[3.2.1]octan-3-yl)-8-methyl-[1,2,4]triazolo[1,5-a]pyridine] | 0.234 |
| COc1ccc(-c2nc3ccc(C4CC5CCC(C4)N5C4CCN(C5CC5)CC4)cn3n2)cc1OC (stereo not drawn) [Example 146, 6-(8-(1-cyclopropylpiperidin-4-yl)-8-azabicyclo[3.2.1]octan-3-yl)-2-(3,4-dimethoxyphenyl)-[1,2,4]triazolo[1,5-a]pyridine] | 0.769 |
| Cc1cc(C2CCN(C3CCN(C4CCC4)CC3)CC2)cn2cc(-c3ccc(S(C)(=O)=O)cc3)nc12 [Example 91, 6-(1′-cyclobutyl-[1,4′-bipiperidin]-4-yl)-8-methyl-2-(4-(methylsulfonyl)phenyl) imidazo[1,2-a]pyridine] | 0.019 |
| Cc1cc(C2CCN(C3CC4CCC(C3)N4C3CCC3)CC2)cn2cc(-c3ccc(S(C)(=O)=O)cc3)nc12 (single isomer, unassigned) [Example 84, 6-(1-(8-cyclobutyl-8-azabicyclo[3.2.1]octan-3-yl)piperidin-4-yl)-8-methyl-2-(4-(methylsulfonyl)phenyl)imidazo[1,2-a]pyridine] | 0.021 |
| Cc1cc(C2CCN(C3CC4CCC(C3)N4CC3CCC3)CC2)cn2cc(-c3ccc(S(C)(=O)=O)cc3)nc12 (single isomer, unassigned) [Example 90, 6-(1-(8-(cyclobutylmethyl)-8-azabicyclo[3.2.1]octan-3-yl)piperidin-4-yl)-8-methyl-2-(4-(methylsulfonyl)phenyl)imidazo[1,2-a]pyridine] | 0.104 |
| Cc1cc(C2CC3CCC(C2)N3C2CCN(C3CC3)CC2)cn2nc(-c3ccc(S(C)(=O)=O)cc3)nc12 (stereo not drawn) [Example 159, 6-(8-(1-cyclopropylpiperidin-4-yl)-8-azabicyclo[3.2.1]octan-3-yl)-8-methyl-2-(4-(methylsulfonyl)phenyl)-[1,2,4]triazolo[1,5-a]pyridine] | 0.594 |
| COc1ccc(-c2nc3n(n2)CC(c2ccc(N4CCN(C(C)C)CC4)cc2)CC3C)cc1OC (stereo not drawn) [Example 144, 2-(3,4-dimethoxyphenyl)-6-(4-(4-isopropylpiperazin-1-yl)phenyl)-8-methyl-5,6,7,8-tetrahydro-[1,2,4]triazolo[1,5-a]pyridine] | 1.46 |
| COc1ccc(-c2nc3ccc(C4CCN(C5CCN(C(C)C)CC5)CC4)cn3n2)cc1OC [Example 165, 2-(3,4-dimethoxyphenyl)-6-(1′-isopropyl-[1,4′-bipiperidin]-4-yl)-[1,2,4]triazolo[1,5-a]pyridine] | 0.113 |
| COc1ccc(-c2nc3ccc(C4CCN(C5CCN(C6CC6)CC5)CC4)cn3n2)cc1OC [Example 164, 6-(1′-cyclopropyl-[1,4′-bipiperidin]-4-yl)-2-(3,4-dimethoxyphenyl)-[1,2,4]triazolo[1,5-a]pyridine] | 0.39 |
| COc1ccc(-c2nc3n(n2)CC(C2CC4CCC(C2)N4C2CCN(C4CC4)CC2)CC3)cc1OC (stereo not drawn) [Example 145, 6-(8-(1-cyclopropylpiperidin-4-yl)-8-azabicyclo[3.2.1]octan-3-yl)-2-(3,4-dimethoxyphenyl)-5,6,7,8-tetrahydro-[1,2,4]triazolo[1,5-a]pyridine] | 0.342 |
| COc1ccc(-c2nc3c(C)cc(C4CC5CCC(C4)N5C4CCN(C5CC5)CC4)cn3n2)cc1OC (stereo not drawn) [Example 155, 6-(8-(1-cyclopropylpiperidin-4-yl)-8-azabicyclo[3.2.1]octan-3-yl)-2-(3,4-dimethoxyphenyl)-8-methyl-[1,2,4]triazolo[1,5-a]pyridine] | 0.214 |
| COc1ccc(-c2nc3ccc(C4CC5CCC(C4)N5C4CCN(C(C)C)CC4)cn3n2)cc1OC (stereo not drawn) [Example 149, 2-(3,4-dimethoxyphenyl)-6-(8-(1-isopropylpiperidin-4-yl)-8-azabicyclo[3.2.1]octan-3-yl)-[1,2,4]triazolo[1,5-a]pyridine] | 0.217 |
| CC(C)N1CCN(c2ccc(-c3ccc4nc(-c5ccc(S(C)(=O)=O)cc5)nn4c3)cc2)CC1 [Example 167, 6-(4-(4-isopropylpiperazin-1-yl)phenyl)-2-(4-(methylsulfonyl)phenyl)-[1,2,4]triazolo[1,5-a]pyridine] | 1.63 |
